The source made the active and inactive calls. How the calls were made is not given here.
Test system: CCRIS mutagenicity, Ames/micronucleus/aberration tests
Test: CCRIS mutagenicity studies
[1] = Test System: AMES SALMONELLA TYPHIMURIUM, Strain/Indicator: TA98, Metabolic Activation: NONE, Method: STANDARD PLATE
[2] = Test System: AMES SALMONELLA TYPHIMURIUM, Strain/Indicator: TA100, Metabolic Activation: NONE, Method: STANDARD PLATE
[3] = Test System: AMES SALMONELLA TYPHIMURIUM, Strain/Indicator: TA1537, Metabolic Activation: NONE, Method: STANDARD PLATE
[4] = Test System: AMES SALMONELLA TYPHIMURIUM, Strain/Indicator: TA98, Metabolic Activation: RAT, LIVER, S-9, AROCLOR 1254, Method: STANDARD PLATE

With CC(=O)c1cc2c(cc1C)C(C)(C)C(C)CC2(C)C (stereo not given) the mutagenic call (Test System: AMES SALMONELLA TYPHIMURIUM, Strain/Indicator: TA97, Metabolic Activation: NONE, Method: PREINCUBATION) was “inactive; negative”, the mutagenic call (Test System: AMES SALMONELLA TYPHIMURIUM, Strain/Indicator: TA97, Metabolic Activation: NONE, Method: STANDARD PLATE) was “inactive; negative” and the mutagenic call (Test System: AMES SALMONELLA TYPHIMURIUM, Strain/Indicator: TA97, Metabolic Activation: RAT LIVER S-9, AROCLOR 1254, Method: STANDARD PLATE) was “inactive; negative”. For the same compound, the mutagenic call (Test System: AMES SALMONELLA TYPHIMURIUM, Strain/Indicator: TA97, Metabolic Activation: RAT LIVER S-9, PHENOBARBITAL, BETA-NAPHTHOFLAVONE, Method: PREINCUBATION) was “inactive; negative”, the mutagenic call (Test System: AMES SALMONELLA TYPHIMURIUM, Strain/Indicator: TA97, Metabolic Activation: RAT LIVER S-9, PHENOBARBITAL, BETA-NAPHTHOFLAVONE, Method: STANDARD PLATE) was “inactive; negative” and the mutagenic call (Test System: AMES SALMONELLA TYPHIMURIUM, Strain/Indicator: TA98, Metabolic Activation: NONE, Method: PREINCUBATION) was “inactive; negative”. The mutagenic call [1] was “inactive; negative”, the mutagenic call (Test System: AMES SALMONELLA TYPHIMURIUM, Strain/Indicator: TA98, Metabolic Activation: RAT LIVER S-9, AROCLOR 1254, Method: STANDARD PLATE) was “inactive; negative” and the mutagenic call (Test System: AMES SALMONELLA TYPHIMURIUM, Strain/Indicator: TA98, Metabolic Activation: RAT LIVER S-9, PHENOBARBITAL, BETA-NAPHTHOFLAVONE, Method: PREINCUBATION) was “inactive; negative”. The mutagenic call (Test System: AMES SALMONELLA TYPHIMURIUM, Strain/Indicator: TA98, Metabolic Activation: RAT LIVER S-9, PHENOBARBITAL, BETA-NAPHTHOFLAVONE, Method: STANDARD PLATE) was “inactive; negative”, the mutagenic call (Test System: AMES SALMONELLA TYPHIMURIUM, Strain/Indicator: TA100, Metabolic Activation: NONE, Method: PREINCUBATION) was “inactive; negative” and the mutagenic call [2] was “inactive; negative”. The mutagenic call (Test System: AMES SALMONELLA TYPHIMURIUM, Strain/Indicator: TA100, Metabolic Activation: RAT LIVER S-9, AROCLOR 1254, Method: STANDARD PLATE) was “inactive; negative”, the mutagenic call (Test System: AMES SALMONELLA TYPHIMURIUM, Strain/Indicator: TA100, Metabolic Activation: RAT LIVER S-9, PHENOBARBITAL, BETA-NAPHTHOFLAVONE, Method: PREINCUBATION) was “inactive; negative” and the mutagenic call (Test System: AMES SALMONELLA TYPHIMURIUM, Strain/Indicator: TA100, Metabolic Activation: RAT LIVER S-9, PHENOBARBITAL, BETA-NAPHTHOFLAVONE, Method: STANDARD PLATE) was “inactive; negative”. For the same compound, the mutagenic call (Test System: AMES SALMONELLA TYPHIMURIUM, Strain/Indicator: TA102, Metabolic Activation: NONE, Method: PREINCUBATION) was “inactive; negative”, the mutagenic call (Test System: AMES SALMONELLA TYPHIMURIUM, Strain/Indicator: TA102, Metabolic Activation: NONE, Method: STANDARD PLATE) was “inactive; negative” and the mutagenic call (Test System: AMES SALMONELLA TYPHIMURIUM, Strain/Indicator: TA102, Metabolic Activation: RAT LIVER S-9, AROCLOR 1254, Method: STANDARD PLATE) was “inactive; negative”. The mutagenic call (Test System: AMES SALMONELLA TYPHIMURIUM, Strain/Indicator: TA102, Metabolic Activation: RAT LIVER S-9, PHENOBARBITAL, BETA-NAPHTHOFLAVONE, Method: PREINCUBATION) was “inactive; negative”, the mutagenic call (Test System: AMES SALMONELLA TYPHIMURIUM, Strain/Indicator: TA102, Metabolic Activation: RAT LIVER S-9, PHENOBARBITAL, BETA-NAPHTHOFLAVONE, Method: STANDARD PLATE) was “inactive; negative” and the mutagenic call (Test System: AMES SALMONELLA TYPHIMURIUM, Strain/Indicator: TA1535, Metabolic Activation: NONE, Method: PREINCUBATION) was “inactive; negative”. The mutagenic call (Test System: AMES SALMONELLA TYPHIMURIUM, Strain/Indicator: TA1535, Metabolic Activation: NONE, Method: STANDARD PLATE) was “inactive; negative”, the mutagenic call (Test System: AMES SALMONELLA TYPHIMURIUM, Strain/Indicator: TA1535, Metabolic Activation: RAT LIVER S-9, PHENOBARBITAL, BETA-NAPHTHOFLAVONE, Method: PREINCUBATION) was “inactive; negative” and the mutagenic call (Test System: AMES SALMONELLA TYPHIMURIUM, Strain/Indicator: TA1535, Metabolic Activation: RAT LIVER S-9, PHENOBARBITAL, BETA-NAPHTHOFLAVONE, Method: STANDARD PLATE) was “inactive; negative”. The mutagenic call (Test System: AMES SALMONELLA TYPHIMURIUM, Strain/Indicator: TA1537, Metabolic Activation: NONE, Method: PREINCUBATION) was “inactive; negative”, the mutagenic call [3] was “inactive; negative” and the mutagenic call (Test System: AMES SALMONELLA TYPHIMURIUM, Strain/Indicator: TA1537, Metabolic Activation: RAT LIVER S-9, PHENOBARBITAL, BETA-NAPHTHOFLAVONE, Method: PREINCUBATION) was “inactive; negative”. The mutagenic call (Test System: AMES SALMONELLA TYPHIMURIUM, Strain/Indicator: TA1537, Metabolic Activation: RAT LIVER S-9, PHENOBARBITAL, BETA-NAPHTHOFLAVONE, Method: STANDARD PLATE) was “inactive; negative”, the mutagenic call (Test System: ESCHERICHIA COLI, Strain/Indicator: WP2 UVR A, Metabolic Activation: NONE, Method: PREINCUBATION) was “inactive; negative” and the mutagenic call (Test System: ESCHERICHIA COLI, Strain/Indicator: WP2 UVR A, Metabolic Activation: NONE, Method: STANDARD PLATE) was “inactive; negative”. The mutagenic call (Test System: ESCHERICHIA COLI, Strain/Indicator: WP2 UVR A, Metabolic Activation: RAT LIVER S-9, PHENOBARBITAL, BETA-NAPHTHOFLAVONE, Method: PREINCUBATION) was “inactive; negative”, the mutagenic call (Test System: ESCHERICHIA COLI, Strain/Indicator: WP2 UVR A, Metabolic Activation: RAT LIVER S-9, PHENOBARBITAL, BETA-NAPHTHOFLAVONE, Method: STANDARD PLATE) was “inactive; negative” and the mutagenic call (Test System: UDS RAT HEPATOCYTES, Metabolic Activation: NONE, Method: NET NUCLEAR GRAIN COUNT) was “inactive; negative”.
C1COCCOCCOCCOCCOCCOCCO1 was tested, and the mutagenic call [1] was “inactive; negative”, the mutagenic call [4] was “inactive; negative” and the mutagenic call [2] was “inactive; negative”. For the same compound, the mutagenic call (Test System: AMES SALMONELLA TYPHIMURIUM, Strain/Indicator: TA100, Metabolic Activation: RAT, LIVER, S-9, AROCLOR 1254, Method: STANDARD PLATE) was “inactive; negative”, the mutagenic call (Test System: AMES SALMONELLA TYPHIMURIUM, Strain/Indicator: TA1530, Metabolic Activation: NONE, Method: STANDARD PLATE) was “inactive; negative” and the mutagenic call (Test System: AMES SALMONELLA TYPHIMURIUM, Strain/Indicator: TA1530, Metabolic Activation: RAT, LIVER, S-9, AROCLOR 1254, Method: STANDARD PLATE) was “inactive; negative”. For the same compound, the mutagenic call [3] was “inactive; negative” and the mutagenic call (Test System: AMES SALMONELLA TYPHIMURIUM, Strain/Indicator: TA1537, Metabolic Activation: RAT, LIVER, S-9, AROCLOR 1254, Method: STANDARD PLATE) was “inactive; negative”.
With CC(C)(Cl)OC(C)(C)Cl the mutagenic call (Test System: AMES SALMONELLA TYPHIMURIUM, Strain/Indicator: TA100, Metabolic Activation: RAT, LIVER, S-9, AROCLOR 1254, Method: DESICCATOR) was “active; positive”.
With CC(=O)N(O)c1ccc([N+](=O)[O-])cc1 the mutagenic call (Test System: AMES SALMONELLA TYPHIMURIUM, Strain/Indicator: TA98(NR), Metabolic Activation: NONE, Method: STANDARD PLATE) was “inactive; negative”, the mutagenic call (Test System: AMES SALMONELLA TYPHIMURIUM, Strain/Indicator: TA98(NR), Metabolic Activation: RAT, LIVER, S-9, AROCLOR 1254, Method: STANDARD PLATE) was “inactive; negative” and the mutagenic call [1] was “active; positive”. The mutagenic call [4] was “active; positive”, the mutagenic call (Test System: AMES SALMONELLA TYPHIMURIUM, Strain/Indicator: TA1538(NR), Metabolic Activation: NONE, Method: STANDARD PLATE) was “inactive; negative” and the mutagenic call (Test System: AMES SALMONELLA TYPHIMURIUM, Strain/Indicator: TA1538(NR), Metabolic Activation: RAT, LIVER, S-9, AROCLOR 1254, Method: STANDARD PLATE) was “inactive; negative”. For the same compound, the mutagenic call (Test System: AMES SALMONELLA TYPHIMURIUM, Strain/Indicator: TA1538, Metabolic Activation: NONE, Method: STANDARD PLATE) was “active; positive” and the mutagenic call (Test System: AMES SALMONELLA TYPHIMURIUM, Strain/Indicator: TA1538, Metabolic Activation: RAT, LIVER, S-9, AROCLOR 1254, Method: STANDARD PLATE) was “active; positive”.

Source: PubChem BioAssay AID1259407 (Chemical Carcinogenesis Research Information System (CCRIS), 2018)
